Article PMC7377239, “Cardiovascular Effects of Polychlorinated Biphenyls and Their Major Metabolites” (Environmental Health Perspectives, 2020)
Read-outs that look alike come from different tables or passages of the source.

System: iCell cardiomyocytes (human iPSC-derived cardiomyocytes)
Assay: Intracellular Ca2+ flux / beating parameters in iCell cardiomyocytes (FLIPR tetra), 90 min or 24 h
Type: cell-based
Conditions: Homo sapiens, Cardiomyocyte, 0.00 µM = 100.00; for activity at 0.1 µM: 0.10 µM
Outline: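 PODs were defined as the concentration crossing one SD of the vehicle-control means (0.5% DMSO) on four-parameter logistic fits of Ca2+ trace metrics (peak height, frequency, peak-spacing CV, decay/rise ratio). Traces came from 100 s, 8 Hz FLIPR reads at 37 °C on calcium-dye-loaded iCell cardiomyocytes. Before reading, cells were treated for 90 min or 24 h from 5× chemical plates spanning 0.05–500 µM, in triplicate.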

[1] = 1.5 h, 90min, read-out: cm.amp.avg.90min
[2] = 1.5 h, 90min, read-out: cm.amp.cv.90min
[3] = 1.5 h, 90min, read-out: cm.bpm.90min
[4] = 1.5 h, 90min, read-out: cm.decay.rise.90min
[5] = 1.5 h, 90min, read-out: cm.spacing.cv.90min
[6] = 24 h, 24hrs, read-out: cm.amp.avg.24hrs
[7] = 24 h, 24hrs, read-out: cm.amp.cv.24hrs
[8] = 24 h, 24hrs, read-out: cm.bpm.24hrs
[9] = 24 h, 24hrs, read-out: cm.decay.rise.24hrs
[10] = 24 h, 24hrs, read-out: cm.spacing.cv.24hrs

COc1cc(Cl)c(-c2cc(Cl)ccc2Cl)cc1Cl [4-OMe PCB52]
activity at 0.01 µM [1]: 106% | activity at 0.01 µM [2]: 122% | activity at 0.01 µM [3]: 97.8% | activity at 0.01 µM [4]: 97.5% | activity at 0.01 µM [5]: 105% | activity at 0.1 µM [1]: 106% | activity at 0.1 µM [2]: 92.7% | activity at 0.1 µM [3]: 102% | activity at 0.1 µM [4]: 99.6% | activity at 0.1 µM [5]: 88% | activity at 1 µM [1]: 107% | activity at 1 µM [2]: 113% | activity at 1 µM [3]: 100% | activity at 1 µM [4]: 97% | activity at 1 µM [5]: 94.3% | activity at 10 µM [1]: 83.3% | activity at 10 µM [2]: 119% | activity at 10 µM [3]: 120% | activity at 10 µM [4]: 91.9% | activity at 10 µM [5]: 108% | activity at 100 µM [1]: 0% | activity at 100 µM [2]: 0% | activity at 100 µM [3]: 0% | activity at 100 µM [4]: 0% | activity at 100 µM [5]: 0% | activity at 0.01 µM [6]: 89% | activity at 0.01 µM [7]: 35.4% | activity at 0.01 µM [8]: 54.4% | activity at 0.01 µM [9]: 45.5% | activity at 0.01 µM [10]: 56.2% | activity at 0.1 µM [6]: 164% | activity at 0.1 µM [7]: 69.5% | activity at 0.1 µM [8]: 109% | activity at 0.1 µM [9]: 100% | activity at 0.1 µM [10]: 108% | activity at 1 µM [6]: 166% | activity at 1 µM [7]: 70.7% | activity at 1 µM [8]: 95.5% | activity at 1 µM [9]: 109% | activity at 1 µM [10]: 102% | activity at 10 µM [6]: 138% | activity at 10 µM [7]: 81.2% | activity at 10 µM [8]: 104% | activity at 10 µM [9]: 107% | activity at 10 µM [10]: 102% | activity at 100 µM [6]: 0% | activity at 100 µM [7]: 0% | activity at 100 µM [8]: 0% | activity at 100 µM [9]: 0% | activity at 100 µM [10]: 0%
